Assay results published in ChEMBL document CHEMBL4316596, “Antimicrobial Peptides with High Proteolytic Resistance for Combating Gram-Negative Bacteria” (J Med Chem, 2019).
The source made the active and inactive calls. The calls are words filed in the database; no cut-off is given here.

Key:
Pseudomonas aeruginosa = assay: Ratio of MBC against Pseudomonas aeruginosa ATCC 27853 after 50 passages to MBC against Pseudomonas aeruginosa ATCC 27853; format: functional
Chymotrypsin = Chymotrypsin (Homo sapiens, UniProt Q99895+P17538+P40313+Q6GPI1); assay: Stability of the compound assessed as chymotrypsin (unknown origin)-mediated compound hydrolysis after 1 hrs by SDS-PAGE analysis; format: ADME, protein assay
[1] = Stability of the compound assessed as Tritirachium album proteinase K-mediated compound hydrolysis after 1 hrs by SDS-PAGE analysis; format: ADME; conditions: parengyodontium album
Trypsin = Trypsin (Homo sapiens, UniProt P07477+P07478+P35030); assay: Stability of the compound assessed as trypsin (unknown origin)-mediated compound hydrolysis after 1 hrs by SDS-PAGE analysis; format: ADME, protein assay
Escherichia coli [2] = assay: Induction of outer membrane permeabilization in Escherichia coli ATCC 25922 at 1 uM by NPN-dye based assay relative to control
[3] = Hemolytic activity against human RBC at 1 to 128 uM after 1 hr; format: ADME, cell-based, Erythrocyte; conditions: red blood cells (erythrocytes), read-out: Activity
[4] = Renal toxicity in ICR mouse assessed as effect on BUN levels in serum at 40 mg/kg, ip administered every 12 hrs for 3 days measured at 72 hrs post dose; format: organism-based; conditions: in vivo
[5] = Stability of the compound assessed as Tritirachium album proteinase K-mediated compound hydrolysis by LC-MS analysis; format: ADME; conditions: parengyodontium album
[6] = Toxicity in ICR mouse assessed as effect on AST levels in serum at 20 mg/kg, ip administered every 12 hrs for 3 days measured at 72 hrs post dose; format: organism-based; conditions: in vivo
Escherichia coli [7] = assay: Induction of membrane disruption in Escherichia coli ATCC 25922 assessed as pore formation at MBC after 1 hr by SEM analysis; format: functional, organism-based
Escherichia coli [8] = assay: Induction of membrane disruption in Escherichia coli ATCC 25922 assessed as outer membrane separation at MBC after 1 hr by TEM analysis; format: functional, organism-based
Lipopolysaccharide (LPS) [9] = assay: Displacement of BODIPY-TR-cadaverine from Escherichia coli O111:B4 LPS at 4 uM after 1 hr by spectrofluorophotometric method relative to control
Escherichia coli [10] = assay: Induction of membrane disruption in Escherichia coli ATCC 25922 assessed as sparse cytoplasmic distribution at MBC after 1 hr by TEM analysis; format: functional, organism-based
[11] = Toxicity in ICR mouse assessed as effect on ALT levels in serum at 40 mg/kg, ip administered every 12 hrs for 3 days measured at 72 hrs post dose; format: organism-based; conditions: in vivo
Lipid bilayer [12] = assay: Induction of membrane disruption in LPS/PC/PG unilamellar vesicles assessed as calcein-entrapped liposome leakage at 2 uM after 15 mins by fluorescence assay
[13] = Stability of the compound assessed as pepsin (unknown origin)-mediated compound hydrolysis by LC-MS analysis; format: ADME; conditions: human
RAW264.7 [14] = assay: Inhibition of LPS-stimulated TNFalpha production in mouse RAW264.7 cells at 16 uM after 20 hrs by […]; format: functional, cell-based
Escherichia coli [15] = assay: Bactericidal activity against Escherichia coli ATCC 25922 using FITC-labelled peptide incubated for 4 hrs followed by culture spread on agar plates and cultured overnight; format: functional; conditions: ATCC 25922, 4 h
Escherichia coli [16] = assay: Bactericidal activity against Escherichia coli ATCC 25922 assessed as elimination of bacterial cells at MBC after 60 mins by time kill assay; format: functional
Escherichia coli [17] = assay: Induction of cell membrane disruption in Escherichia coli ATCC 25922 at MBC after 30 mins using FITC-labelled peptides by propidium iodide-staining based confocal fluorescent microscopy; format: organism-based
Lipid bilayer [18] = assay: Induction of membrane disruption in LPS/POPC/POPG unilamellar vesicles assessed as calcein-entrapped liposome leakage after 15 mins by fluorescence assay
Lipopolysaccharide (LPS) [19] = assay: Binding affinity to Escherichia coli O111:B4 LPS by SPR method
Escherichia coli [20] = assay: Induction of outer membrane permeabilization in Escherichia coli ATCC 25922 at 1 to 64 uM by NPN-dye based assay; format: organism-based
RAW264.7 [21] = assay: Inhibition of LPS-stimulated NO production in mouse RAW264.7 cells at 16 uM after 20 hrs by Griess reagent-based assay; format: functional, cell-based
[22] = Toxicity in ICR mouse assessed as effect on AST levels in serum at 40 mg/kg, ip administered every 12 hrs for 3 days measured at 72 hrs post dose; format: organism-based; conditions: in vivo
[23] = Drug localisation at cell membrane of Escherichia coli ATCC 25922 at MBC after 30 mins using FITC-labelled peptides by propidium iodide-staining based confocal fluorescent microscopy; format: ADME, cell membranes; conditions: 0.5 h
Lipopolysaccharide (LPS) [24] = assay: Displacement of BODIPY-TR-cadaverine from Escherichia coli O111:B4 LPS after 1 hr by spectrofluorophotometric method
[25] = Toxicity in ICR mouse assessed as effect on ALT levels in serum at 20 mg/kg, ip administered every 12 hrs for 3 days measured at 72 hrs post dose; format: organism-based; conditions: in vivo
[26] = Renal toxicity in ICR mouse assessed as effect on BUN levels in serum at 20 mg/kg, ip administered every 12 hrs for 3 days measured at 72 hrs post dose; format: organism-based; conditions: in vivo
Escherichia coli [27] = assay: Induction of cytoplasmic membrane depolarization in Escherichia coli ATCC 25922 assessed as induction cytoplasmic ONPG release at 4 uM up to 120 mins by DiSC3-5 dye-based fluorescence spectrophotometric method; format: functional, organism-based
Escherichia coli [28] = assay: Induction of membrane disruption in Escherichia coli ATCC 25922 assessed as pore formation at MBC after 1 hr by TEM analysis; format: functional, organism-based
Lipid bilayer [29] = assay: Induction of membrane disruption in POPC/POPG unilamellar vesicles assessed as calcein-entrapped liposome leakage at 1 to 64 uM after 15 mins by fluorescence assay
Escherichia coli [30] = assay: Induction of membrane disruption in Escherichia coli ATCC 25922 assessed as membrane content leakage at MBC after 1 hr by SEM analysis; format: functional, organism-based
Escherichia coli [31] = assay: Bactericidal activity against Escherichia coli O111:B4 assessed as reduction in colony forming units at MBC after 90 mins in presence of LPS; format: functional, organism-based
Escherichia coli [32] = assay: Induction of membrane disruption in Escherichia coli ATCC 25922 assessed as formation of broken membrane fragments at MBC after 1 hr by SEM analysis; format: functional, organism-based
Escherichia coli [33] = assay: Bactericidal activity against Escherichia coli ATCC 25922 assessed as elimination of bacterial cells at MBC after 30 mins by time kill assay; format: functional
Escherichia coli [34] = assay: Bactericidal activity against Escherichia coli ATCC 25922 assessed as elimination of bacterial cells at MBC after 5 mins by time kill assay; format: functional
HEK-293T = assay: Cytotoxicity against HEK293T cells assessed as cell death at 32 uM after 18 to 24 hrs by MTT assay relative to control; format: cell-based; conditions: human
[35] = Cytotoxicity against mouse RAW264.7 cells assessed as cell viability at 4 uM after 18 to 24 hrs by MTT assay relative to control; format: cell-based; conditions: read-out: Activity
[36] = Hemolytic activity against human RBC at 128 uM after 1 hr; format: ADME, cell-based, Erythrocyte; conditions: red blood cells (erythrocytes), read-out: Activity
[37] = Cytotoxicity against IPECJ2 cells assessed as cell death at 16 uM after 18 to 24 hrs by MTT assay relative to control; format: cell-based, Sus scrofa; conditions: pig

For `CC[C@H](C)[C@H](NC(=O)CN)C(=O)NCC(=O)N[C@@H](C)C(=O)N[C@H](C(=O)N[C@@H](CC(C)C)C(=O)N[C@@H](CCCCN)C(=O)N[C@H](C(=O)N[C@@H](CC(C)C)C(=O)N[C@H](C(=O)N[C@H](C(=O)NCC(=O)N[C@@H](CC(C)C)C(=O)N1CCC[C@H]1C(=O)N[C@@H](C)C(=O)N[C@@H](CC(C)C)C(=O)N[C@H](C(=O)N[C@@H](CO)C(=O)N[C@@H](Cc1c[nH]c2ccccc12)C(=O)N[C@H](C(=O)N[C@@H](CCCCN)C(=O)N[C@@H](CCCNC(=N)N)C(=O)N[C@@H](CCCCN)C(=O)N[C@@H](CCCNC(=N)N)C(=O)N[C@@H](CCC(N)=O)C(=O)N[C@@H](CCC(N)=O)C(N)=O)[C@@H](C)CC)[C@@H](C)CC)[C@@H](C)O)[C@@H](C)O)C(C)C)C(C)C` [MELITTIN], the Ratio (Pseudomonas aeruginosa) was 256, the Stability (Chymotrypsin) was “Unstable” and the Stability [1] was “Unstable”. The Stability (Trypsin) was “Unstable” and the Activity (Escherichia coli [2]) was “Active”.
In the case of H-IKPIIKPIIKPIIKPIIKPIIKPIIKPI-NH2, the hemolysis at 1 h, up to 128 µM [3] is reported as less than 5%.
In the case of H-IRPIIRPIIRPIIRPIIRPIIRPIIRPI-NH2, the Activity [4] is reported as “Non-Toxic”, the Stability [5] is reported as “Stable” and the hemolysis at 1 h, up to 128 µM [3] is reported as less than 5%. The Activity [6] was “Toxic”, the Activity (Escherichia coli [7]) was “Active” and the Activity (Escherichia coli [8]) was “Active”. The Activity (Lipopolysaccharide (LPS) [9]) was 70%, the Activity (Escherichia coli [10]) was “Active” and the Activity [11] was “Non-Toxic”. The Activity (Lipid bilayer [12]) was 30%, the Stability [13] was “Stable” and the inhibition (RAW264.7 [14]) was “Active”. The MBC (Escherichia coli [15]) was 4 µM, the Activity (Escherichia coli [16]) was greater than 99.99% and the Activity (Escherichia coli [17]) was “Active”. For the same molecule, the Activity (Lipid bilayer [18]) was “Dose-dependent effect”, the Activity (Lipopolysaccharide (LPS) [19]) was “Dose-dependent effect” and the Activity (Escherichia coli [20]) was “Active”. For the same molecule, the inhibition (RAW264.7 [21]) was “Active”, the Activity [22] was “Non-Toxic” and the Drug uptake [23] was “Active”. The Activity (Lipopolysaccharide (LPS) [24]) was “Dose-dependent effect”, the Activity [25] was “Toxic” and the Activity [26] was “Toxic”. For the same molecule, the Activity (Escherichia coli [27]) was “Active”, the Activity (Escherichia coli [28]) was “Active” and the Activity (Lipid bilayer [29]) was “Active”. For the same molecule, the Activity (Escherichia coli [30]) was “Active”, the Activity (Escherichia coli [2]) was greater than 50% and the Activity (Escherichia coli [31]) was “inactive”. The Activity (Escherichia coli [32]) was “Active”.
With H-LKPLLKPLLKPLLKPLLKPLLKPLLKPL-NH2 the Activity (Escherichia coli [33]) was greater than 99.99%.
Molecule H-LRPLLRPLLRPLLRPLLRPLLRPLLRPL-NH2 has an Activity (Escherichia coli [34]) greater than 99.99%, an Activity (HEK-293T) of 80% and a viability at 4 µM [35] of 7.52%. For the same molecule, the hemolysis at 1 h, 128 µM [36] was greater than 40% and the Activity [37] was 80%.
